Test results taken from patent US6613961B1, “Plants capable of metabolizing drugs and use thereof” (priority 1998, dated 2003).

Experiments:
[1] = test system: human P4502C18 gene-introduced rice; test: Germination assay for herbicide resistance of human P4502C18 gene-introduced rice R1 seeds; assay type: in vivo
[2] = test system: S1974 (human CYP2C19); test: Herbicide tolerance assay for transformants; assay type: in vivo, Solanum tuberosum cv. MayQueen; settings: acetochlor 20 μmol, atrazine 1.2 μmol, metolachlor 30 μmol dispersed
Excerpt: Then, herbicides were dispersed.

[3] = test system: non-transformed MayQueen; test: Assay for herbicide resistance, non-transformed potato; assay type: in vivo; settings: 14 days after dispersal
Excerpt: 4, the same growth as that when herbicide was not dispersed.

[4] = test system: seeds of Nipponbare into which the gene was not introduced; test: Germination assay for herbicide resistance, non-introduced rice seeds; assay type: in vivo, rice (Nipponbare); settings: after about 4 to 7 days
[5] = test system: potato transformants; test: Assay for herbicide resistance of potato transformants (human CYP2C19); settings: for Resistance to herbicide: Transformant, 14 days after dispersal
[6] = test system: S1972 (human CYP2B6); settings: acetochlor 20 μmol, metolachlor 30 μmol dispersed
[7] = test system: human P4502C19 gene-introduced rice; test: Germination assay for herbicide resistance of human P4502C19 gene-introduced rice R1 seeds; assay type: in vivo
[8] = biological target: T1, Human CYP2B6 (Homo sapiens, UniProt P20813); test: Metabolism of herbicides in microsomes of recombinant yeast expressing human P450
T1 sequence (P20813 1-491): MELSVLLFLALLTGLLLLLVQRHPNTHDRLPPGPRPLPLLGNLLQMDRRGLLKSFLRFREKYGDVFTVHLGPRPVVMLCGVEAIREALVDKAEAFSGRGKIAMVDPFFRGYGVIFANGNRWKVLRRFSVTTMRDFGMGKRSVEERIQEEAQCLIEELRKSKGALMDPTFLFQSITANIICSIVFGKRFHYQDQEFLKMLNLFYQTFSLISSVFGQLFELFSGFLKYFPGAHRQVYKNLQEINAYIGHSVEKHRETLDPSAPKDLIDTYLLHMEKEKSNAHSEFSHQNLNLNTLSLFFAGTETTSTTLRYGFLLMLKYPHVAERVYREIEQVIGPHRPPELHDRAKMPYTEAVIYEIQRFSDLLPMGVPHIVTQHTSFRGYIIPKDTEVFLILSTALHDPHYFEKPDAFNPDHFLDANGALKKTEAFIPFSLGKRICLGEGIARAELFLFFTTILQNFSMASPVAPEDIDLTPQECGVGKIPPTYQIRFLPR
Experimental: The reaction was carried out in a range of temperature suitable for an organism from which a p450 molecular species is derived (for example, 37° C. for human P450), by mixing with air while vigorously shaking, within a period during which an enzyme is not inactivated (for example, for 10 to 60 min).
From the height of the peak, a metabolized amount can be obtained.
To 0.1 M potassium phosphate buffer (pH 7.4), the microsomal fraction prepared from each of yeast strains respectively expressing one of 11 human P450 molecular species (obtained from Sumitomo Chemical) was added so that the amount of the p450 would be 25 pmol. Furthermore, 0.5 mM NADPH, 5 mM glucose 6 phosphate, 1 U/ml glucose 6 phosphate dehydrogenase, and 0.1 mM each of the following herbicides (those available in the market were used) were added at the final concentrations thereto to make the total volume of 100 μl. The reaction mixture was shaken at 37° C. for 60 min, and an organic solvent was added thereto for the extraction. The extract was applied to the high performance liquid chromatography, and the metabolite was measured.

[9] = biological target: T2, Human CYP2C19 (Homo sapiens, UniProt P33261); test: as above; assay type: in vitro ADME
T2 construct: purchased Sumitomo Chemical; host or cells: recombinant yeast, microsomal fraction

[10] = test system: potato transformants; test: Herbicide metabolism in the potato transformants; assay type: in vivo, potato (MayQueen); settings: 14C-labeled pyributicarb 10 μM in the medium; cultured for 8 days; thin layer chromatography
Experimental: The potato transformants proliferated from axillary buds, elongated to about 10 cm, were cultured in the medium added with the ^14C-labeled pyributicarb at the concentration of 10 μM. The plants were cultured for 8 days, and metabolites were extracted from the plants (Murakami, M. et al., J. Pesticide. Sci., 1997, 22, 222-225). The metabolites and the culture solution were analyzed by thin layer chromatography (Shiota, N. et al., Pestic. Biochem. Physiol., 1996, 54, 190-198).

[11] = test system: tobacco R0 plants; test: Herbicide metabolism in the tobacco R0 plants; assay type: in vivo; settings: 14C-labeled 0.5 mM chlorosulfuron (20 μl) on the leaf surface; 50 hours; thin layer chromatography
Experimental: Using the tobacco R0 plants 3 weeks after transplantation, metabolism of chlorosulfuron was measured by the method of Sweetser et al. (Sweetser, P. B. et al., Pestic. Biochem. Physiol., 1982, 17, 18-23). ^14C-labeled 0.5 mM chlorosulfuron (20 μl) was spread on the leaf surface. The leaf surface was washed with acetone 50 hours after the treatment, and a metabolite was extracted by acetone extraction. The extract was concentrated and dried by a rotary evaporator, dissolved in methanol, and analyzed by thin layer chromatography using benzene:acetone:formic acid (30:10:1) as an solvent.

[12] = test system: non-transformed tobacco plants; only vector introduced; test: Assay for herbicide resistance in tobacco, control plants; assay type: in vivo; settings: for Tolerance to chlorosulfuron: cultured for 40 days
Experimental: (§1) Transformed and non-transformed tobacco plants proliferated from axillary buds were transferred onto hormone-free Murashige & Skoog (MS) medium containing 0, 20, 50, 100, or 200 nM chlorosulfuron for assaying tolerance at growth.
(§2) 4, the same growth as that when the herbicide was not dispersed.

[13] = test system: human P4502C9 gene-introduced rice; test: Germination assay for herbicide resistance of human P4502C9 gene-introduced rice R1 seeds; assay type: in vivo
[14] = test system: tobacco transformants; test: Assay for herbicide resistance in the tobacco R0 plants (human CYP2C9); assay type: in vivo; set-up: Tolerance to chlorosulfuron: key: 1: almost dead; 2: severely inhibited growth; 3: slightly inferior growth; 4: the same growth as that when the herbicide was not dispersed; settings: for Tolerance to chlorosulfuron: cultured for 40 days
Experimental: as §1, §2

[15] = biological target: Human CYP2C9 (Homo sapiens, UniProt P11712); test: Herbicide metabolism by human P450 molecular species (microsomal fraction); assay type: in vitro ADME
Sequence of Human CYP2C9 (P11712 whole entry): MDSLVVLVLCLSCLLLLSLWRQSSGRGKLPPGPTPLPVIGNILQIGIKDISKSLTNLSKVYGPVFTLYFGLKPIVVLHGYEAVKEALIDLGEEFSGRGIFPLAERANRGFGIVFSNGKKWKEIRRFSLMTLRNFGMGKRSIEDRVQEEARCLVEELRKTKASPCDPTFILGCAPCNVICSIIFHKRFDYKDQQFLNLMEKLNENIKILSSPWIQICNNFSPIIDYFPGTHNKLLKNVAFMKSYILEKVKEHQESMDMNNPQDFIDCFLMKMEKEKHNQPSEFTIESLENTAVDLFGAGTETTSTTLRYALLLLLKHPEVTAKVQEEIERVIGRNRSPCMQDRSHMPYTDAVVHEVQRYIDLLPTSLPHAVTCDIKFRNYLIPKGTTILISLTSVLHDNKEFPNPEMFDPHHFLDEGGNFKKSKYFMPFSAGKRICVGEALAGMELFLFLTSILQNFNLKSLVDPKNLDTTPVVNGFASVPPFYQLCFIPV

T2 sequence (P33261 whole entry): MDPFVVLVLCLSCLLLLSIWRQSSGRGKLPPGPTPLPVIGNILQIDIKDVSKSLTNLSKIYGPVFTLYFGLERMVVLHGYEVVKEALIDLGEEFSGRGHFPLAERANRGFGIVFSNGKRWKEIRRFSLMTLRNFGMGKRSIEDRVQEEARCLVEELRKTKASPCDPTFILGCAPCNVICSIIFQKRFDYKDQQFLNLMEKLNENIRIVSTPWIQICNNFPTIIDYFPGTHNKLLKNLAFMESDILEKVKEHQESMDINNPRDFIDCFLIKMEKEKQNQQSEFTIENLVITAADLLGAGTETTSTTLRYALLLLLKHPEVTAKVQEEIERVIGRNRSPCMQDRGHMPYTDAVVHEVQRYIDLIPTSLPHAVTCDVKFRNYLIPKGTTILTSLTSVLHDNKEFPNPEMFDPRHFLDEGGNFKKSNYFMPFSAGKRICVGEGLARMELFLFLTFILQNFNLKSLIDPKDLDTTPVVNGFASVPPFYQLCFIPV

CCc1cccc(C)c1N(C(=O)CCl)C(C)COC (stereo not shown) [metolachlor]
The number of tolerant lines ([1]; 2C18, 4 μM · 2 ml, 72 sample lines): 3
elongation of shoots and roots of segregated individuals ([1]; metolachlor 4 μM): normally elongated
resistance of the transformant to the herbicide [2]: strong resistance
Resistance to herbicide ([3]; Metolachlor 10 μmol/pot): 2
Resistance to herbicide ([3]; Metolachlor 15 μmol/pot): 2
Resistance to herbicide ([3]; Metolachlor 20 μmol/pot): 1.5
Germination of seeds ([4]; […] metolachlor, […] alachlor, 15 μM triflurarin): inhibited
Germination of seeds ([4]; metolachlor 4 μM): inhibited
Resistance to herbicide ([5]; Metolachlor 10 μmol/pot): 2.5
Resistance to herbicide ([5]; Metolachlor 15 μmol/pot): 3.5
Resistance to herbicide ([5]; Metolachlor 20 μmol/pot): 2.5
resistance of the transformant compared with the non-transformed MayQueen ([5]; herbicide dispersed 1 week after transfer to pots): higher resistance
resistance of the transformant to the herbicide [6]: strong resistance
The number of tolerant lines ([7]; 2C19, 4 μM · 2 ml, 68 sample lines): 13
elongation of shoots and roots of segregated individuals ([7]; metolachlor 4 μM): normally elongated
metabolic reaction confirmed [8]: O-deethylation, O-demethylation

COc1cccc(N(C)C(=S)Oc2cccc(C(C)(C)C)c2)n1 [pyributicarb]
metabolic reaction confirmed [9]: thioester cleavage
amounts of pyributicarb in transgenic plant and in the medium compared with non-transformed MayQueen [10]: obviously reduced

COc1nc(C)nc(NC(=O)NS(=O)(=O)c2ccccc2Cl)n1 [chlorosulfuron]
water-soluble substances which remained at the starting point of the development, in the transformants [11]: increased
growth of the non-transformed plants ([12]; 50 nM chlorosulfuron): completely inhibited
Tolerance to chlorosulfuron ([12]; Non-transformed, 20 nM): 2
Tolerance to chlorosulfuron ([12]; Non-transformed, 50 nM): 1.5
Tolerance to chlorosulfuron ([12]; Non-transformed, 100 nM): 1
Tolerance to chlorosulfuron ([12]; Non-transformed, 200 nM): 0.5
Tolerance to chlorosulfuron ([12]; Only vector introduced, 20 nM): 2
Tolerance to chlorosulfuron ([12]; Only vector introduced, 50 nM): 1.5
Tolerance to chlorosulfuron ([12]; Only vector introduced, 100 nM): 1
Tolerance to chlorosulfuron ([12]; Only vector introduced, 200 nM): 0.5
The number of tolerant lines ([13]; 2C9, 250 nM · 2 ml, 44 sample lines): 15
elongation of shoots and roots of segregated individuals ([13]; chlorosulfuron 250 nM): normally elongated
Germination of seeds ([4]; chlorosulfuron 250 nM): inhibited
growth of the transformants ([14]; 200 nM chlorosulfuron): grew
Tolerance to chlorosulfuron ([14]; transformant N8, 20 nM): 4
Tolerance to chlorosulfuron ([14]; transformant N8, 50 nM): 4
Tolerance to chlorosulfuron ([14]; transformant N8, 100 nM): 2.5
Tolerance to chlorosulfuron ([14]; transformant N8, 200 nM): 2
Tolerance to chlorosulfuron ([14]; transformant N60, 20 nM): 4
Tolerance to chlorosulfuron ([14]; transformant N60, 50 nM): 4
Tolerance to chlorosulfuron ([14]; transformant N60, 100 nM): 3
Tolerance to chlorosulfuron ([14]; transformant N60, 200 nM): 3
Tolerance to chlorosulfuron ([14]; transformant N61, 20 nM): 4
Tolerance to chlorosulfuron ([14]; transformant N61, 50 nM): 4
Tolerance to chlorosulfuron ([14]; transformant N61, 100 nM): 2
Tolerance to chlorosulfuron ([14]; transformant N61, 200 nM): 2
Tolerance to chlorosulfuron ([14]; transformant N69, 20 nM): 4
Tolerance to chlorosulfuron ([14]; transformant N69, 50 nM): 4
Tolerance to chlorosulfuron ([14]; transformant N69, 100 nM): 2
Tolerance to chlorosulfuron ([14]; transformant N69, 200 nM): 2
metabolic reaction confirmed [15]: ring hydroxylation
